Reference: US20230310394A1 (THE SECOND XIANGYA HOSPITAL OF CENTRAL SOUTH UNIVERSITY, priority 2020, published 2023)
Several values for one entry are separate records, joined by “and”; a condition that tells them apart may be missing. Equal entries are not always repeated.

Key:
Type in all cases: cell-based, Human
[1] = tested on: HEL^PE (HEL-persistent, ruxolitinib-resistant) cells; assay: Apoptosis detection by flow cytometry after Annexin V-PI staining, HEL-persistent model; settings: 24 hours
Text: (§1) Three parallel replicate groups were set up, and the apoptosis of cells was detected by flow cytometry after Annexin V-PI staining.
(§2) The calculation formula of the apoptosis rate: apoptosis rate=ratio of early apoptotic cells (Annexin V+/PI−)+ratio of late apoptotic cells and necrotic cells (Annexin V+/PI+).

HEL cells [2] = assay: Anti-proliferative test, CellTiter-Lumi luminescence method, HEL cells; settings: 72 hours; for average proliferation rate: HEL cells, relative to DMSO control
Description: (§3) HEL (Human erythroleukemia cell line) and drug-resistant HEL cells were cultured in RPMI medium (Gibco) containing 20% heat-inactivated fetal bovine serum (Gibco) and 1% penicillin/streptomycin (Gibco).
(§4) To test the anti-proliferative effect of the inhibitors, the above cell lines were cultured at a 3000 cells/200 μL per well, added with increasing concentrations of the inhibitors (concentration gradient: 0, 1, 2.5, 5, 10, 20 μM), then supplemented with DMSO to an equal volume. 4 parallel replicate groups and 3 blank wells (culture medium wells without cells) were set. After 72 hours, the cell proliferation was detected by a multi-plate reader using CellTiter-Lumi™ luminescence method (Beyotime), and the IC50 was calculated by Graph Pad prism.
(§5) The calculation formula of cell proliferation rate: cell proliferation rate=(Luminescence value of drug-treated group—average Luminescence value of blank wells)/(Luminescence value of DMSO control group—average Luminescence value of blank wells)×100%.

[3] = tested on: HEL^PE (HEL-persistent, ruxolitinib-resistant) cells; assay: Anti-proliferative test, CellTiter-Lumi luminescence method, HEL-persistent model; settings: for IC50: Homo sapiens, HEL^PE cells, 72 hours
Description: as §3
(§6) HEL^PE model, namely HEL-persistent model, was constructed by treating HEL blast cells with a high concentration of ruxolitinib that exceeded the IC50 concentration of blast cells by more than 100 times, wherein the concentration of ruxolitinib used herein was 2.0 μM. The culture medium of the cells was changed every two days, the cells that cannot tolerate the high concentration of ruxolitinib died quickly, while the proliferated cells were DTP (drug-tolerant-persisters), and this cell subset was difficult to be killed by antitumor drugs. Stable drug-resistant cells were obtained after 4-6 weeks. Another drug resistance model is HEL^RE, namely the HEL-resistant model, which was constructed by treating blast cells with ruxolitinib from a starting concentration lower than the IC50 concentration of blast cells, slowly increasing to a high concentration to keep the cells from being killed. The starting concentration used herein was 0.1 μM, the drug was added as soon as the cells proliferated, the dosing gradient was 1.25-fold increments, and the final concentration was 2.0 μM. Stable drug-resistant cells were obtained after 4-6 weeks.
as §4, with “4 parallel replicate groups and 3 blank wells (culture medium wells without cells) were set.” left out
The calculation formula of cell proliferation rate: cell proliferation rate=(Luminescence value of drug-treated group—average Luminescence value of blank wells)/(Luminescence value of DMSO control group—average Luminescence value of blank wells)×100%. […]

[4] = tested on: HEL^RE (HEL-resistant, ruxolitinib-resistant) cells; assay: Anti-proliferative test, CellTiter-Lumi luminescence method, HEL-resistant model; settings: for IC50: HEL^RE cells
Description: as §3, §6, §4, §5
The method to evaluate whether the model is successfully constructed is to compare the IC50 of drug-resistant cells and naive cells, the obtained ratio was the drug-resistance index, and if the ratio was greater than 3, then the model was successfully constructed.

[5] = tested on: HEL^RE (HEL-resistant, ruxolitinib-resistant) cells; assay: Apoptosis detection by flow cytometry after Annexin V-PI staining, HEL-resistant model; settings: 24 hours
Text: as §1, §2

HEL cells [6] = assay: Apoptosis detection by flow cytometry after Annexin V-PI staining, HEL cells; settings: 24 hours
Text: as §1, §2

SMILES	average apoptosis rate ([1]; 2.5 μM)	average apoptosis rate ([1]; 5 μM)	average apoptosis rate ([1]; 10 μM)	average proliferation rate (HEL cells [2]; 1 μM)	average proliferation rate (HEL cells [2]; 2.5 μM)	average proliferation rate (HEL cells [2]; 5 μM)	average proliferation rate (HEL cells [2]; 20 μM)	IC50 [3]	IC50 ([4]; Homo sapiens, 72 h)	average apoptosis rate ([5]; 2.5 μM)	average apoptosis rate ([5]; 5 μM)	average apoptosis rate ([5]; 10 μM)	average apoptosis rate (HEL cells [6]; 2.5 μM)	average apoptosis rate (HEL cells [6]; 5 μM)	average apoptosis rate (HEL cells [6]; 10 μM)	average proliferation rate (HEL cells [2]; 10 μM)	IC50 (HEL cells [2]; Homo sapiens, HEL naive cells, mean (95% confidence interval))	drug-resistance index ([3]; ratio of IC50 of HEL^PE cells to IC50 of naive HEL cells)	IC50 ([4]; 72 hours)	drug-resistance index ([4]; ratio of IC50 of HEL^RE cells to IC50 of naive HEL cells)
CNC(=O)c1cc(Oc2ccc(NC(=O)Nc3ccc(Cl)c(C(F)(F)F)c3)cc2)ccn1 [sorafenib]	2.16%	11.1%	18.0%	80.3%	72.1%	40.0%	0.828%	2.8 µM	3.56 µM	1.22%	5.58%	18.6%	5.82%	10.9%	16.1%	–	–	–	–	–
CNC(=O)c1cc(Oc2ccc(NC(=O)Nc3ccc(Cl)c(C(F)(F)F)c3)c(F)c2)ccn1 [regorafenib]	–	–	–	84.7%	57.7%	32.1%	1.15%	–	0.514 µM	9.50%	12.9%	14.7%	4.31%	7.76%	10.6%	17.7%	–	–	–	–
N#CC[C@H](C1CCCC1)n1cc(-c2ncnc3[nH]ccc23)cn1 [ruxolitinib, Ruxolitinib]	0.920%	1.11%	0.740%	41.4% and 50.5%	40.6% and 48.4%	42.8% and 50.2%	22.9% and 28.5%	25.5 µM	–	1.16% and 3.75%	1.35% and 3.70%	1.05% and 4.34%	4.65% and 2.05%	5.07% and 2.14%	4.59% and 2.16%	40.8% and 48.4%	50 nM	510	24.9 µM	498
